Measurements reported in patent US20240002344A1, “COMPOUNDS, COMPOSITIONS AND METHODS FOR HISTONE LYSINE DEMETHYLASE INHIBITION” (FibroGen, Inc., priority 2020, published 2024).

Legend:
recombinant human KDM5B = molecular target: T1, recombinant human KDM5B (Homo sapiens, UniProt Q9UGL1); test: 14CO2 capture enzymatic assay (decarboxylation of [1-14C] αKG), KDM5B; format: biochemical; settings: 10 μM [1-14C] αKG, 90 μM non-labeled αKG, 50 μM peptide substrate, 37° C., 1 hour, final 1% DMSO
T1 sequence (Q9UGL1 374-755 limits assumed): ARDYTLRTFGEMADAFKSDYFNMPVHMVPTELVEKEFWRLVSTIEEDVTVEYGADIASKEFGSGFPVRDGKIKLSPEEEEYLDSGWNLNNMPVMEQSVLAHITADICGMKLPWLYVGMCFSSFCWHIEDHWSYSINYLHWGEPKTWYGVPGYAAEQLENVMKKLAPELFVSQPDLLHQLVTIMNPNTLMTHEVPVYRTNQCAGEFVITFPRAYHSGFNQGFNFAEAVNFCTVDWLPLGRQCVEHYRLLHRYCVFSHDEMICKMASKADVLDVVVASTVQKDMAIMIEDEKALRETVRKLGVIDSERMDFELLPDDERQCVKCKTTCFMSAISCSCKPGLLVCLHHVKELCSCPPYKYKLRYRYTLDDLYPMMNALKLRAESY
Summary of the method: (§1)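 Truncated recombinant human KDM5B (H3K4me3 peptide) or KDM4A (H3K9me3 peptide), 50 μM peptide, with 10 μM [1-14C]αKG plus 90 μM unlabeled αKG, 10 μM Fe(SO4), 2 mM ascorbate in pH 7.4 HEPES, 1 h at 37 °C, 1% DMSO. Released 14CO2 trapped on Ba(OH)2 filter; IC50 by non-linear fit.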

recombinant human KDM4A = molecular target: T2, recombinant human KDM4A (Homo sapiens, UniProt O75164); test: 14CO2 capture enzymatic assay (decarboxylation of [1-14C] αKG), KDM4A; format: biochemical; settings: 10 μM [1-14C] αKG, 90 μM non-labeled αKG, 50 μM peptide substrate, 37° C., 1 hour, final 1% DMSO
T2 construct: made in house
T2 sequence (O75164 1-359 limits assumed): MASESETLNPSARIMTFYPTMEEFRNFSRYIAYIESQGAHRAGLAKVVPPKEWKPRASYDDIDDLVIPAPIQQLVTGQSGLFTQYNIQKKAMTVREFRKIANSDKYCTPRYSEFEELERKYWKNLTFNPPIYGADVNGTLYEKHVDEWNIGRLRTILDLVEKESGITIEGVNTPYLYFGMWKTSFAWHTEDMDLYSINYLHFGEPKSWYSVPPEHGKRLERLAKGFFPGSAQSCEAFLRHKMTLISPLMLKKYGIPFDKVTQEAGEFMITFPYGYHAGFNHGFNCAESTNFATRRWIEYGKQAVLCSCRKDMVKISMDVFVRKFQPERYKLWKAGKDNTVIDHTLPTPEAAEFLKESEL
Summary of the method: as §1

SMILES	IC50 (recombinant human KDM5B) [µM]	IC50 (recombinant human KDM4A) [µM]
Cc1c(F)cccc1-c1cc(C#N)c(O)c(C(=O)CCC(=O)O)n1 [Example 80, 4-[4-Cyano-6-(3-fluoro-2-methyl-phenyl)-3-hydroxy-pyridin-2-yl]-4-oxo-butyric acid]	0.39	> 40
COc1ccc(-c2cc(C#N)c(O)c(C(=O)CCC(=O)O)n2)c(Cl)c1 [Example 81, 4-[6-(2-Chloro-4-methoxy-phenyl)-4-cyano-3-hydroxy-pyridin-2-yl]-4-oxo-butyric acid]	0.34	> 40
Cc1ccc(F)cc1-c1cc(C#N)c(O)c(C(=O)CCC(=O)O)n1 [Example 82, 4-[4-Cyano-6-(5-fluoro-2-methyl-phenyl)-3-hydroxy-pyridin-2-yl]-4-oxo-butyric acid]	0.35	> 40
Cc1ccc(-c2cc(C#N)c(O)c(C(=O)CCC(=O)O)n2)c(Cl)c1 [Example 84, 4-[6-(2-Chloro-4-methyl-phenyl)-4-cyano-3-hydroxy-pyridin-2-yl]-4-oxo-butyric acid]	0.46	> 40
CCc1ccccc1-c1cc(C#N)c(O)c(C(=O)CCC(=O)O)n1 [Example 85, 4-[4-Cyano-6-(2-ethyl-phenyl)-3-hydroxy-pyridin-2-yl]-4-oxo-butyric acid]	0.45	> 40
Cc1cc(F)ccc1-c1cc(C#N)c(O)c(C(=O)CCC(=O)O)n1 [Example 86, 4-[4-Cyano-6-(4-fluoro-2-methyl-phenyl)-3-hydroxy-pyridin-2-yl]-4-oxo-butyric acid]	0.45	> 40
Cc1cccc(F)c1-c1cc(C#N)c(O)c(C(=O)CCC(=O)O)n1 [Example 88, 4-[4-Cyano-6-(2-fluoro-6-methyl-phenyl)-3-hydroxy-pyridin-2-yl]-4-oxo-butyric acid]	0.71	> 40
Cc1cccc(-c2cc(C#N)c(O)c(C(=O)CCC(=O)O)n2)c1C [Example 92, 4-[4-Cyano-6-(2,3-dimethyl-phenyl)-3-hydroxy-pyridin-2-yl]-4-oxo-butyric acid]	0.37	> 40
Cc1ccc(-c2cc(C#N)c(O)c(C(=O)CCC(=O)O)n2)c(C)c1 [Example 93, 4-[4-Cyano-6-(2,4-dimethyl-phenyl)-3-hydroxy-pyridin-2-yl]-4-oxo-butyric acid]	0.33	> 40
Cc1c(-c2cc(C#N)c(O)c(C(=O)CCC(=O)O)n2)cccc1C(F)(F)F [Example 95, 4-[4-Cyano-3-hydroxy-6-(2-methyl-3-trifluoromethyl-phenyl)-pyridin-2-yl]-4-oxo-butyric acid]	0.35	> 40
Cc1ccc(C#N)cc1-c1cc(C#N)c(O)c(C(=O)CCC(=O)O)n1 [Example 100, 4-[4-Cyano-6-(5-cyano-2-methyl-phenyl)-3-hydroxy-pyridin-2-yl]-4-oxo-butyric acid]	0.43	> 40
Cc1cccc(-c2cc(C#N)c(O)c(C(=O)CCC(=O)O)n2)c1Cl [Example 101, 4-[6-(2-Chloro-3-methyl-phenyl)-4-cyano-3-hydroxy-pyridin-2-yl]-4-oxo-butyric acid]	0.31	> 40
Cc1ccc(Cl)c(-c2cc(C#N)c(O)c(C(=O)CCC(=O)O)n2)c1 [Example 102, 4-[6-(2-Chloro-5-methyl-phenyl)-4-cyano-3-hydroxy-pyridin-2-yl]-4-oxo-butyric acid]	0.4	> 40
N#Cc1cc(-c2cccc(C(F)(F)F)c2Cl)nc(C(=O)CCC(=O)O)c1O [Example 103, 4-[6-(2-Chloro-3-trifluoromethyl-phenyl)-4-cyano-3-hydroxy-pyridin-2-yl]-4-oxo-butyric acid]	0.38	> 40
N#Cc1cc(-c2ccccc2)cc(C(=O)CCC(=O)O)c1O [Example 104, 4-(5-Cyano-4-hydroxy-biphenyl-3-yl)-4-oxo-butyric acid]	0.46	> 40
N#Cc1ccc(C(F)(F)F)cc1-c1cc(C#N)c(O)c(C(=O)CCC(=O)O)n1 [Example 105, 4-[4-Cyano-6-(2-cyano-5-trifluoromethyl-phenyl)-3-hydroxy-pyridin-2-yl]-4-oxo-butyric acid]	0.42	> 40
COc1ccc(Cl)c(-c2cc(C#N)c(O)c(C(=O)CCC(=O)O)n2)c1 [Example 106, 4-[6-(2-Chloro-5-methoxy-phenyl)-4-cyano-3-hydroxy-pyridin-2-yl]-4-oxo-butyric acid]	0.35	> 40
N#Cc1cc(-c2cccc(F)c2Cl)nc(C(=O)CCC(=O)O)c1O [Example 107, 4-[6-(2-Chloro-3-fluoro-phenyl)-4-cyano-3-hydroxy-pyridin-2-yl]-4-oxo-butyric acid]	0.32	> 40

Continued, values first:

IC50 (recombinant human KDM5B) [µM]	IC50 (recombinant human KDM4A) [µM]	SMILES
0.19	> 40	N#Cc1cc(Oc2ccccc2)nc(C(=O)CCC(=O)O)c1O [Example 76, 4-(4-Cyano-3-hydroxy-6-phenoxy-pyridin-2-yl)-4-oxo-butyric acid]
0.04	12	N#Cc1cc(-c2ccc3ccccc3c2)nc(C(=O)CCC(=O)O)c1O [Example 77, 4-(4-Cyano-3-hydroxy-6-naphthalen-2-yl-pyridin-2-yl)-4-oxo-butyric acid]
0.09	> 40	N#Cc1cc(Sc2ccccc2)nc(C(=O)CCC(=O)O)c1O [Example 78, 4-(4-Cyano-3-hydroxy-6-phenylsulfanyl-pyridin-2-yl)-4-oxo-butyric acid]
0.23	> 40	N#Cc1cc(Oc2ccc(F)cc2)nc(C(=O)CCC(=O)O)c1O [Example 79, 4-[4-Cyano-6-(4-fluoro-phenoxy)-3-hydroxy-pyridin-2-yl]-4-oxo-butyric acid]
0.25	> 40	N#Cc1cc(-c2ccc(F)cc2Cl)nc(C(=O)CCC(=O)O)c1O [Example 83, 4-[6-(2-Chloro-4-fluoro-phenyl)-4-cyano-3-hydroxy-pyridin-2-yl]-4-oxo-butyric acid]
0.28	> 40	N#Cc1cc(F)ccc1-c1cc(C#N)c(O)c(C(=O)CCC(=O)O)n1 [Example 87, 4-[4-Cyano-6-(2-cyano-4-fluoro-phenyl)-3-hydroxy-pyridin-2-yl]-4-oxo-butyric acid]
0.31	> 40	Cc1c(Cl)cccc1-c1cc(C#N)c(O)c(C(=O)CCC(=O)O)n1 [Example 89, 4-[6-(3-Chloro-2-methyl-phenyl)-4-cyano-3-hydroxy-pyridin-2-yl]-4-oxo-butyric acid]
0.25	> 40	Cc1cc(Cl)ccc1-c1cc(C#N)c(O)c(C(=O)CCC(=O)O)n1 [Example 90, 4-[6-(4-Chloro-2-methyl-phenyl)-4-cyano-3-hydroxy-pyridin-2-yl]-4-oxo-butyric acid]
0.17	> 40	Cc1ccc(Cl)cc1-c1cc(C#N)c(O)c(C(=O)CCC(=O)O)n1 [Example 91, 4-[6-(5-Chloro-2-methyl-phenyl)-4-cyano-3-hydroxy-pyridin-2-yl]-4-oxo-butyric acid]
0.27	> 40	Cc1ccc(C)c(-c2cc(C#N)c(O)c(C(=O)CCC(=O)O)n2)c1 [Example 94, 4-[4-Cyano-6-(2,5-dimethyl-phenyl)-3-hydroxy-pyridin-2-yl]-4-oxo-butyric acid]
0.31	> 40	Cc1cc(C(F)(F)F)ccc1-c1cc(C#N)c(O)c(C(=O)CCC(=O)O)n1 [Example 96, 4-[4-Cyano-3-hydroxy-6-(2-methyl-4-trifluoromethyl-phenyl)-pyridin-2-yl]-4-oxo-butyric acid]
0.3	> 40	Cc1ccc(C(F)(F)F)cc1-c1cc(C#N)c(O)c(C(=O)CCC(=O)O)n1 [Example 97, 4-[4-Cyano-3-hydroxy-6-(2-methyl-5-trifluoromethyl-phenyl)-pyridin-2-yl]-4-oxo-butyric acid]
0.3	> 40	Cc1c(C#N)cccc1-c1cc(C#N)c(O)c(C(=O)CCC(=O)O)n1 [Example 98, 4-[4-Cyano-6-(3-cyano-2-methyl-phenyl)-3-hydroxy-pyridin-2-yl]-4-oxo-butyric acid]
0.27	> 40	Cc1cc(C#N)ccc1-c1cc(C#N)c(O)c(C(=O)CCC(=O)O)n1 [Example 99, 4-[4-Cyano-6-(4-cyano-2-methyl-phenyl)-3-hydroxy-pyridin-2-yl]-4-oxo-butyric acid]
0.27	> 40	N#Cc1cc(-c2cc(F)ccc2Cl)nc(C(=O)CCC(=O)O)c1O [Example 108, 4-[6-(2-Chloro-5-fluoro-phenyl)-4-cyano-3-hydroxy-pyridin-2-yl]-4-oxo-butyric acid]
